Where a name gives a salt, the structure may show the parent alone. Read-outs that look alike come from different tables or passages of the source.
Experiments:
Assay type in all cases: physicochemical
[1] = Solution stability in buffer solutions; settings: buffer solutions pH about 1.2 to about 10.0, about 60° C., 2 days
Protocol: The stability of Compound I HCl Form I in buffer solutions over a pH range of about 1.2 to about 10.0 was also evaluated. These solutions were stored at about 60° C., and assayed for pH and % remaining at 2 days.

[2] = Approximate kinetic solubility in simulated biological fluids; settings: about 37° C.; for solubility kinetic at 2 h: equilibrated for 2 hrs; for solubility kinetic at 1 day: equilibrated for 1 day
Source text: (§1) A summary of the approximate kinetic solubility of Compound I HCl Form I in organic solvents, simulated biological fluids, and common pharmaceutical co-solvents is provided in Tables 8-10, respectively.

[3] = Dynamic vapor sorption (DVS) analysis
Source text: In view of the DVS analysis, compound I HCl Form I may be characterized as a monohydrate.

[4] = Thermodynamic aqueous solubility by HPLC; settings: HPLC grade water, 25° C., 24 hours; second scale up material; listed as Comp. I HCl (formed using aqueous HCl) Form I
Protocol: The suspension was equilibrated at 25° C. for 24 hours. The suspension was then passed through a filter into an HPLC vial. The filtrate was then diluted by an appropriate factor. Quantification was executed by HPLC with reference to a standard solution of approximately 1 mg·mL^−1 in acetonitrile:water (1:1). Different volumes of the standard, diluted and undiluted sample solutions were injected. […] HPLC method parameters are described in Table 1 and Table 2.
Analysis was performed on an Agilent 1100 series liquid chromatography, equipped with a UV detector (DAD or VWD) @ 254 nm and using Chemstation Rev.B.01.03 software for data processing.
(§2) The solubility of the salts/co-crystals of Compound I prepared from the second scale up process was analyzed. The materials recovered after the solubility analysis were evaluated by XRPD to observe any form changes.

[5] = Further solubility testing of Compound I HCl Form I in solvents
[6] = Approximate kinetic solubility in organic solvents; settings: kinetic from dmso stock
Source text: as §1

[7] = XRPD form evaluation of materials recovered after solubility analysis; settings: aqueous solubility analysis, second scale up material
Protocol: as §2

[8] = Kinetic solubility in SGF; settings: listed as HC1 salt Form I
Protocol: (§3) Kinetic solubility testing was conducted as follows: About 40-55 mg material was weighed into a 5-mL EP pipe. 4 mL of water/bio-relevant media (SGF, FaSSIF, or FeSSIF) was added into the corresponding sample pipe (drug loading: ˜10 mg/mL calculated as freebase). The pipes were capped tightly and the material was verified to be in contact with the media. The sample vials were placed on a roller and start rolling at 37° C. (rate: 25 r/min). Samples were taken at 1, 2, 4, 24 h. For each time point, 1.0 mL of suspension was transferred into a 2-mL centrifuge tube and the samples were centrifuged. The supernatant was filtered via 0.45 μm PTFE membrane and solubility and pH were measured. An XRPD test on residual solids was conducted.

[9] = Storage under vacuum at 40° C. and at 60° C.; settings: 4 days, initial HPLC purity 99.3%
Protocol: Storage under vacuum at 40° C. and at 60° C.: Compound I HCl Form I was stored under vacuum at 40° C. and at 60° C. Initial HPLC purity was 99.3%.

[10] = Thermodynamic pH-solubility profile; settings: 7 days of shaking, about 37° C. water bath
Source text: A thermodynamic pH-solubility profile of Compound I HCl Form I in various buffer or non-buffer solutions is further provided in FIG. 61. FIG. 61 additionally includes the thermodynamic pH-solubility profile of Compound I free base. It is of note that no data is shown in the profile of Compound I free base below a pH of about 2.0, as Compound I free base converted to Compound I HCl Form I below a pH of about 2.0. Similarly, no data is shown in the profile of Compound I HCl Form I above a pH of about 3.0, as Compound I HCl Form I converted to Compound I free base above a pH of about 3.0.

[11] = Overall solid form comparison (summary statements)
Source text: The hydration behavior of Compound I HCl Form I is reversible, such that rehydration of Compound I HCl Form I returns the single, crystalline form, allowing Compound I HCl Form I be stored at ambient conditions without desiccant.

[12] = Kinetic solubility in FeSSIF
Protocol: as §3

[13] = simulated gastric fluid, SGF (pH 1.2)
[14] = DMSO, organic solvent or mixture

## CCS(=O)(=O)N1CCN(c2ccc(Nc3ncc(C(N)=O)c(NC4CC4)n3)cc2)CC1 [Compound I HCl Form I, 4-(cyclopropylamino)-2-(4-(4-(ethylsulfonyl)piperazin-1-yl)phenylamino)pyrimidine-5-carboxamide]
[1]
  pH at which most stable in solution (% remaining): about 4.5
[2]; FaSSIF (pH 6.1)
  solubility kinetic at 2 h: 3 µg/mL
  solubility kinetic at 1 day: 3 µg/mL
[2]; FeSSIF (pH 5.0)
  solubility kinetic at 2 h: 35 µg/mL
  solubility kinetic at 1 day: 39 µg/mL
[2]; [13]
  solubility kinetic at 2 h: 67 µg/mL
  solubility kinetic at 1 day: 78 µg/mL
[3]
  De-hydration and re-hydration behaviour (DVS): reversible
  RH at which complete moisture re-uptake is observed (DVS): about 20 % RH
[3]; below about 10% RH
  DVS weight: up to 3.5%
[3]; between about 40% and about 90% RH
  DVS moisture uptake: minimal moisture uptake with no hysteresis
[4]
  solubility: 350 µg/mL
[5]; 1,4-dioxane, organic solvent or mixture
  solubility: < 2100 µg/mL
[5]; 2-MeTHF, organic solvent or mixture
  solubility: < 2100 µg/mL
[5]; ACN, organic solvent or mixture
  solubility: < 2200 µg/mL
[5]; ACN/H2O, 4:1 (v/v), organic solvent or mixture
  solubility: 2900 to 3800 µg/mL
[5]; Acetone/H2O, 4:1 (v/v), organic solvent or mixture
  solubility: < 1900 µg/mL
[5]; CHCl3, organic solvent or mixture
  solubility: < 2300 µg/mL
[5]; CPME, organic solvent or mixture
  solubility: < 2000 µg/mL
[5]; DCM, organic solvent or mixture
  solubility: < 2100 µg/mL
[5]; [14]
  solubility: > 36000 µg/mL
[5]; EtOAc, organic solvent or mixture
  solubility: < 2000 µg/mL
[5]; EtOH, organic solvent or mixture
  solubility: < 2200 µg/mL
[5]; EtOH/H2O, 4:1 (v/v), organic solvent or mixture
  solubility: < 2000 µg/mL
[5]; IPA, organic solvent or mixture
  solubility: < 1900 µg/mL
[5]; IPAc, organic solvent or mixture
  solubility: < 2300 µg/mL
[5]; MIBK, organic solvent or mixture
  solubility: < 2300 µg/mL
[5]; MTBE, organic solvent or mixture
  solubility: < 2000 µg/mL
[5]; MeOH, organic solvent or mixture
  solubility: 1900 to 6300 µg/mL
[5]; MeOH/DCM, 1:1 (v/v), organic solvent or mixture
  solubility: 6800 to 12500 µg/mL
[5]; MeOH/H2O, 4:1 (v/v), organic solvent or mixture
  solubility: < 2000 µg/mL
[5]; NMP, organic solvent or mixture
  solubility: 4000 to 6700 µg/mL
[5]; THF, organic solvent or mixture
  solubility: < 1900 µg/mL
[5]; THF/H2O, 4:1 (v/v), organic solvent or mixture
  solubility: 2000 to 2500 µg/mL
[5]; acetone, organic solvent or mixture
  solubility: < 2200 µg/mL
[5]; anisole, organic solvent or mixture
  solubility: < 2300 µg/mL
[5]; n-heptane, organic solvent or mixture
  solubility: < 1900 µg/mL
[5]; toluene, organic solvent or mixture
  solubility: < 2100 µg/mL
[6]; Acetone, MeCN, IPA, EtOAc, THF, Dioxane, DCM, organic solvent or mixture
  solubility kinetic: < 100 µg/mL
[6]; DMF, PEG300, organic solvent or mixture
  solubility kinetic: 1000 to 10000 µg/mL
[6]; [14]
  solubility kinetic: 10000 to 33300 µg/mL
[6]; Methanol, Ethanol, PG, Safflower Seed Oil, Tween 80, organic solvent or mixture
  solubility kinetic: 100 to 1000 µg/mL
[7]
  Form change on solubility analysis (XRPD post vs pre): no form change
[8]; SGF, 37° C., 1 h, drug loading ~10 mg/mL as freebase
  Solubility (mg/mL) 1 h: 0.041 mg/mL
[8]; SGF, 37° C., 2 h
  Solubility (mg/mL) 2 h: 0.039 mg/mL
[8]; SGF, 37° C., 4 h
  Solubility (mg/mL) 4 h: 0.036 mg/mL
[8]; SGF, 37° C., 24 h
  Solubility (mg/mL) 24 h: 0.035 mg/mL
[8]; XRPD of residual solids, SGF, 1 h, 2 h, 4 h, 24 h
  Final Form: HC1 salt Form I
[8]; supernatant, SGF (native pH 1.8), 1 h
  pH 1 h: 1.9
[8]; supernatant, SGF (native pH 1.8), 2 h
  pH 2 h: 1.9
[8]; supernatant, SGF (native pH 1.8), 4 h
  pH 4 h: 2.0
[8]; supernatant, SGF (native pH 1.8), 24 h
  pH 24 h: 2.0
[9]; 40° C.
  Form change / HPLC purity on storage under vacuum: No form change or decrease in purity by HPLC
[9]; 60° C.
  Form change / HPLC purity on storage under vacuum: No form change or decrease in purity by HPLC
[10]
  pH range in which Compound I HCl Form I converted to Compound I free base: > 3.0
[11]
  Stability relative to the other solid forms / salts of Compound I: most physico-chemically stable solid form
[11]; listed as Compound I mono-HCl Form I
  Stability relative to the other solid forms / salts of Compound I: superior thermodynamically stability
[11]; room temperature, ambient conditions
  Stability of the solid form: stable
[12]; 37° C.
  Kinetic solubility in FeSSIF (qualitative): favorable kinetic solubility
[12]; 37° C., 1 h, drug loading ~10 mg/mL as freebase, listed as HC1 salt Form I
  Solubility (mg/mL) 1 h: 0.049 mg/mL
[12]; 37° C., 2 h, listed as HC1 salt Form I
  Solubility (mg/mL) 2 h: 0.031 mg/mL
[12]; 37° C., 4 h, listed as HC1 salt Form I
  Solubility (mg/mL) 4 h: 0.010 mg/mL
[12]; 37° C., 24 h, listed as HC1 salt Form I
  Solubility (mg/mL) 24 h: 0.0072 mg/mL
[12]; XRPD of residual solids, 2 h, 4 h, 24 h
  Final Form 2 h, 4 h, 24 h: Freebase Form II
[12]; supernatant, 1 h, listed as HC1 salt Form I
  pH 1 h: 4.9
[12]; supernatant, 2 h, listed as HC1 salt Form I
  pH 2 h: 4.7
[12]; supernatant, 4 h, listed as HC1 salt Form I
  pH 4 h: 4.7
[12]; supernatant, 24 h, listed as HC1 salt Form I
  pH 24 h: 4.5
